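Results reflect a 48-hour exposure of cells in 96-well plates to compound at five concentrations. The concentration for 50% growth inhibition is given as GI50. TGI is the concentration that stops growth completely.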

Common to all, as to experiment: NCI anticancer screen, dose series, 48 h
Experiment [1] concerns A498 renal.
Experiment [2] concerns HS 578T breast.
Experiment [3] deals with K-562 leukemia.
Experiment [4] deals with LOX IMVI melanoma.
The test system of experiment [5] is MDA-MB-231 breast.
Experiment [6] has as its system MOLT-4 leukemia.
Experiment [7] has as its system NCI-H23 lung.
For experiment [8], the system named is SN12C renal.
The subject of experiment [9] is U251 CNS.
Experiment [10] concerns UACC-257 melanoma.

For `Cn1c(=O)c2[nH]c(CS(=O)(=O)Cc3nc4c([nH]3)c(=O)n(C)c(=O)n4C)nc2n(C)c1=O`, the TGI in experiment [1], in experiment [2], in [3], in experiment [4], in [5] and in [6] was over 100 µM in each case. In addition, the TGI in [7], in experiment [8], in [9] and in experiment [10] was over 100 µM each time.

With `CN(C)c1ccc2c3c(c(=O)oc2c1)CCC3`, the TGI in [1], in experiment [2], in experiment [3], in experiment [4], in experiment [5] and in experiment [6] was over 100 µM throughout. The TGI in [7], in experiment [8], in [9] and in experiment [10] was over 100 µM each time.

As for `O=C(Nc1ncc(Cc2ccccc2Cl)s1)c1ccc2c(c1)OCCO2`, the GI50 in experiment [1] was 0.151 µM; in [2], 0.354 µM; in [3] it was 0.183 µM; in [4] it was 0.583 µM; in [5], 0.38 µM; in experiment [6] it was 0.581 µM. Besides, the GI50 in experiment [7] is 0.625 µM; in [8] it was 0.614 µM; in experiment [9], 0.4 µM; in experiment [10] it was 6.27 µM. For the same molecule, the TGI was 0.693 µM in experiment [1]; 35.5 µM in experiment [2]; over 100 µM in experiment [3]; over 100 µM in [4]; 8.76 µM in experiment [5]; over 100 µM in experiment [6]. Moreover, the TGI in experiment [7] is over 100 µM; in experiment [8], over 94 µM; in experiment [9], over 51.6 µM; in experiment [10], over 82.1 µM.

Turning to `O=C(Nc1ccc(Cl)cc1)c1cc2ccccc2cc1O`, the GI50 in experiment [1] is 2.23 µM; in experiment [2], 2.68 µM; in [3] it was 3.02 µM; in [4], 2.36 µM; in experiment [5] it was 5.83 µM; in experiment [6], 4.19 µM. Further, the GI50 is 2 µM in experiment [7], 2.46 µM in experiment [8], 2.54 µM in experiment [9] and 3.25 µM in experiment [10]. For the same molecule, the TGI was 8.37 µM in [1]; 11.9 µM in experiment [2]; over 100 µM in experiment [3]; 18.2 µM in [4]; over 100 µM in experiment [5]; over 100 µM in experiment [6]. The TGI is over 100 µM in experiment [7], over 100 µM in experiment [8], 29.5 µM in experiment [9] and 7.91 µM in [10].

Regarding `COc1ccc(/C=C\c2cc(OC)c(OC)c(OC)c2)cc1OCC(=O)Nc1nc2ccc(C(F)(F)F)cc2s1`, the GI50 is 2.81 µM in [1]; 4.18 µM in experiment [2]; 3.3 µM in experiment [3]; 4.01 µM in [4]; 3.38 µM in experiment [5]; 3.75 µM in experiment [6]. The GI50 in experiment [7] is 3.9 µM; in experiment [8], 4.43 µM; in experiment [9] it was 3.67 µM; in experiment [10], 40 µM. Moreover, the TGI was 18.6 µM in experiment [1]; over 100 µM in experiment [2]; over 100 µM in experiment [3]; over 100 µM in experiment [4]; over 100 µM in experiment [5]; over 100 µM in experiment [6]. Moreover, the TGI in experiment [7], in experiment [8], in experiment [9] and in [10] was over 100 µM in each case.

As for `S=C(N/N=C/c1ccccn1)Nc1ccccn1`, the GI50 in experiment [1] is 1.62 µM; in [2], 4.8 µM; in experiment [3], 1.84 µM; in experiment [4], 0.705 µM; in [5] it was 0.642 µM; in experiment [6] it was 0.467 µM. Moreover, the GI50 in experiment [7] was 3.23 µM; in [8], 1.95 µM; in experiment [9], 1.07 µM; in experiment [10], 0.903 µM. For the same molecule, the TGI in experiment [1] is 33.9 µM; in experiment [2], over 100 µM; in [3] it was over 100 µM; in experiment [4], 23.1 µM; in experiment [5], over 100 µM; in experiment [6] it was over 100 µM. Also, the TGI is over 100 µM in experiment [7], over 100 µM in [8], 24 µM in experiment [9] and 5.85 µM in [10].

For `CCOC(CN=c1nc(N(C)C)ss1)OCC`, the TGI is over 100 µM in [1]; over 82.5 µM in experiment [2]; 11.8 µM in experiment [3]; 31.2 µM in experiment [4]; 29.8 µM in experiment [5]; 25.4 µM in experiment [6]. The TGI in [7] came out at 65.8 µM; in experiment [8], 36.8 µM; in experiment [9] it was 29.9 µM; in experiment [10] it was 40.7 µM.

For `O=[N+]([O-])/C=C/c1c[nH]c2ccccc12`, the GI50 in [1] was 16.2 µM; in [2] it was 21.2 µM; in experiment [3] it was 21.7 µM; in experiment [4], 15.9 µM; in experiment [5], 15.2 µM; in experiment [6], 13.9 µM. Besides, the GI50 was 15 µM in experiment [7], 17.8 µM in [8], 12.8 µM in [9] and 16.5 µM in experiment [10]. For the same molecule, the TGI amounted to 31.2 µM in experiment [1]; 66.6 µM in experiment [2]; 61 µM in experiment [3]; 30.2 µM in [4]; 30.7 µM in experiment [5]; 35.5 µM in [6]. The TGI was 31 µM in [7], 37.1 µM in [8], 26.7 µM in [9] and 30.6 µM in experiment [10].

On to `CCN(CC)CCOc1ccc(/C=C2\CC3C4CC=C5C[C@@H](N6CCCC6)CC[C@]5(C)C4CC[C@]3(C)[C@H]2O)cc1OC` (stereo not given in full), for which the GI50 in experiment [1] was 0.0502 µM; in experiment [2], 0.76 µM; in [3], 4.49 µM; in experiment [4] it was 1.92 µM; in [5] it was 2.96 µM; in [6] it was 2.2 µM. Further, the GI50 in [7] is 8.87 µM; in [8], 20.6 µM; in experiment [9], 3.08 µM; in experiment [10] it was 6.82 µM. Also, the TGI in experiment [1] was 1.46 µM; in experiment [2] it was 13.6 µM; in experiment [3], over 100 µM; in experiment [4], 5.28 µM; in [5], 7.58 µM; in [6] it was over 21.6 µM. Besides, the TGI in [7] is 25.1 µM; in [8], over 63.5 µM; in experiment [9], 20.5 µM; in experiment [10], 14.9 µM.

For the origin of these results see PubChem BioAssay (NCI).
